Test results as given in US12691092B2, “Method for reducing cutaneous skin scarring by pre-emptive priming and compounds and compositions for its implementation” (SOS SCIENCE OF SKIN LTD, priority 2020, dated 2026).

What was measured:
[1] = tested on: human skin scarring model; assay: Viscoelasticity of scars by clinical elastin probe; format: in vivo
Experimental: (§1) A double-blind randomized placebo-controlled trial was conducted using a temporal punch-biopsy model. The punch biopsy and topical application methodology used in the study is illustrated in FIG. 1, namely showing pre-injury pre-emptive priming (7-days), pre-injury pre-emptive priming (3-days), day of injury (immediate application on day 0), post-injury (delayed 2 weeks post injury) including biopsy time points and time of topical applications. Each group applied both placebo and topical formulations twice daily for the duration of the study until week 8, with only the starting time point differing between groups Participants were split into 4 groups (n=10 in each group) in order to compare different modes (timings) of commencement of the topical application: • Group-1: Pre-emptive Priming (7-days): pre-injury • Group-2: Pre-emptive Priming (3-days): pre-injury • Group-3: Immediate (0-day): day-of-injury • Group-4: Delayed (14-days): post-injury Clinical quantitative devices were used to objectively monitor cutaneous healing at weekly intervals and punch biopsies were performed on day 0 (uninjured skin) and at weeks 4 and 8 for protein and gene expression analyses. In the trial, topical EGCG and a placebo topical were applied twice daily for the duration of the trial until week 8 with only the starting time points differing between groups. […]

[2] = tested on: elastin; assay: Gene expression analysis of elastin; format: in vivo, human; conditions: weeks 4 and 8; significant in groups-1 to 3 at week 8 (p<0.05)
Experimental: as §1, with “[…] Excisional skin biopsies in upper arms” for “In the trial, topical EGCG and a placebo topical”, “evaluated weekly” for “applied twice daily for the duration of the trial until week 8”, “multiple quantitative devices over an 8-week period.” for “only the starting time points differing between groups.”

[3] = tested on: Fc epsilon RI (FcεRI); assay: Fc epsilon RI immunohistochemical marker in scar biopsies; format: in vivo, human; conditions: week 4, all groups, p<0.01
Experimental: as §1, with “[…] Excisional skin biopsies in upper arms” for “In the trial, topical EGCG and a placebo topical”, “evaluated weekly” for “applied twice daily for the duration of the trial until week 8”, “multiple quantitative devices over an 8-week period.” for “only the starting time points differing between groups.”

[4] = tested on: human skin scarring model; assay: Blood flow by dynamic optical coherence tomography (D-OCT); format: in vivo
Experimental: A double-blind randomized placebo-controlled trial was conducted using a temporal punch-biopsy model. The punch biopsy and topical application methodology used in the study is illustrated in FIG. 1, namely showing pre-injury pre-emptive priming (7-days), pre-injury pre-emptive priming (3-days), day of injury (immediate application on day 0), post-injury (delayed 2 weeks post injury) including biopsy time points and time of topical applications. Each group applied both placebo and topical formulations twice daily for the duration of the study until week 8, with only the starting time point differing between groups Participants were split into 4 groups (n=10 in each group) in order to compare different modes (timings) of commencement of the topical application: • Group-1: Pre-emptive Priming (7-days): pre-injury • Group-2: Pre-emptive Priming (3-days): pre-injury • Group-3: Immediate (0-day): day-of-injury • Group-4: Delayed (14-days): post-injury Clinical quantitative devices were used to objectively monitor cutaneous healing at weekly intervals and punch biopsies were performed on day 0 (uninjured skin) and at weeks 4 and 8 for protein and gene expression analyses. In the trial, topical EGCG and a placebo topical were applied twice daily for the duration of the trial until week 8 with only the starting time points differing between groups. Blood flow analysis using non-invasive objective measures, including full-field laser perfusion imaging (FLPI) and dynamic optical coherence tomography (D-OCT), was undertaken. Clinical images and the corresponding FLPI and D-OCT images are shown in FIGS. 6a, 6b and 6c respectively.

[5] = tested on: human skin models; conditions: ex vivo human skin models; cited from earlier work

## O=C(OC1Cc2c(O)cc(O)cc2OC1c1cc(O)c(O)c(O)c1)c1cc(O)c(O)c(O)c1 (single isomer, unassigned; (-)) [EGCG, (-)-epigallocatechin-3-gallate]
[1]; group-1 weeks 1, 7, 8, group-2 week 8, group-3 week 8, group-4 week 7
  Elasticity (viscoelasticity), EGCG-treated arms compared to placebo-treated arms: significantly increased
[1]; week 8, p=0.029
  Elasticity, between group comparison, group-1 vs group-4: significantly increased elastin more than group-4
[2]
  Elastin gene expression, EGCG-treated samples compared to placebo: upregulation
[3]
  FcεRI in EGCG-treated samples compared to placebo: significant reduction
[4]; group-1 weeks 1-8, group-2 weeks 1-8, group-3 weeks 1-5, 7, 8, group-4 weeks 4-7, p<0.01
  D-OCT blood flow, EGCG-treated compared to placebo: significantly decreased
[4]; week 1, p<0.001, p=0.006, p=0.001
  D-OCT blood flow, group comparison, groups 1-3 vs group-4: reduced blood flow more than group-4
[4]; week 2, p=0.016
  D-OCT blood flow, group comparison, group-1 vs group-4: greater difference than group-4
[4]; week 8, p=0.003, p=0.002
  D-OCT blood flow, group comparison, group-2 vs groups-3 and -4: reduced more than groups-3 and -4
[5]
  Effect on scar growth: inhibited growth and induced scar shrinkage
  Mast cell (MC) numbers: significantly reduced mast cell (MC) numbers
